From paper PMC7181660, “A novel specific PERK activator reduces toxicity and extends survival in Huntington's disease models” (Scientific Reports, 2020)
Like-named read-outs stand apart in the source and are kept apart here.

What was measured:
Experiment in all cases: biochemical
Assay type in all cases: biochemical
panel of 391 kinases [1] = molecular target: panel of 391 kinases (Homo sapiens, UniProt O75676); details: MSK2/RPS6KA4, MK-28 1 µM, ATP 1 µM
panel of 391 kinases [2] = molecular target: panel of 391 kinases (Homo sapiens, UniProt P04629); details: TRKA, MK-28 1 µM, ATP 1 µM
panel of 391 kinases [3] = molecular target: panel of 391 kinases (Homo sapiens, UniProt P36897); details: ALK5/TGFBR1, MK-28 1 µM, ATP 1 µM
panel of 391 kinases [4] = molecular target: panel of 391 kinases (Homo sapiens, UniProt P49759); details: CLK1, MK-28 1 µM, ATP 1 µM
panel of 391 kinases [5] = molecular target: panel of 391 kinases (Homo sapiens, UniProt P51617); details: IRAK1, MK-28 1 µM, ATP 1 µM
panel of 391 kinases [6] = molecular target: panel of 391 kinases (Homo sapiens, UniProt Q13163); details: MEK5, MK-28 1 µM, ATP 1 µM
panel of 391 kinases [7] = molecular target: panel of 391 kinases (Homo sapiens, UniProt Q14012); details: CAMK1a, MK-28 1 µM, ATP 1 µM
panel of 391 kinases [8] = molecular target: panel of 391 kinases (Homo sapiens, UniProt Q14164); details: IKKe/IKBKE, MK-28 1 µM, ATP 1 µM
panel of 391 kinases [9] = molecular target: panel of 391 kinases (Homo sapiens, UniProt Q15759); details: P38b/MAPK11, MK-28 1 µM, ATP 1 µM
panel of 391 kinases [10] = molecular target: panel of 391 kinases (Homo sapiens, UniProt Q6PHR2); details: ULK3, MK-28 1 µM, ATP 1 µM
panel of 391 kinases [11] = molecular target: panel of 391 kinases (Homo sapiens, UniProt Q86UE8); details: TLK2, MK-28 1 µM, ATP 1 µM
panel of 391 kinases [12] = molecular target: panel of 391 kinases (Homo sapiens, UniProt Q96NX5); details: CAMK1g, MK-28 1 µM, ATP 1 µM
panel of 391 kinases [13] = molecular target: panel of 391 kinases (Homo sapiens, UniProt Q9BXA6); details: SSTK/TSSK6, MK-28 1 µM, ATP 1 µM
panel of 391 kinases [14] = molecular target: panel of 391 kinases (Homo sapiens, UniProt Q9H3Y6); details: SRMS, MK-28 1 µM, ATP 1 µM
panel of 391 kinases [15] = molecular target: T1, panel of 391 kinases (Homo sapiens, UniProt Q9NZJ5)
T1 sequence (Q9NZJ5 30-1116): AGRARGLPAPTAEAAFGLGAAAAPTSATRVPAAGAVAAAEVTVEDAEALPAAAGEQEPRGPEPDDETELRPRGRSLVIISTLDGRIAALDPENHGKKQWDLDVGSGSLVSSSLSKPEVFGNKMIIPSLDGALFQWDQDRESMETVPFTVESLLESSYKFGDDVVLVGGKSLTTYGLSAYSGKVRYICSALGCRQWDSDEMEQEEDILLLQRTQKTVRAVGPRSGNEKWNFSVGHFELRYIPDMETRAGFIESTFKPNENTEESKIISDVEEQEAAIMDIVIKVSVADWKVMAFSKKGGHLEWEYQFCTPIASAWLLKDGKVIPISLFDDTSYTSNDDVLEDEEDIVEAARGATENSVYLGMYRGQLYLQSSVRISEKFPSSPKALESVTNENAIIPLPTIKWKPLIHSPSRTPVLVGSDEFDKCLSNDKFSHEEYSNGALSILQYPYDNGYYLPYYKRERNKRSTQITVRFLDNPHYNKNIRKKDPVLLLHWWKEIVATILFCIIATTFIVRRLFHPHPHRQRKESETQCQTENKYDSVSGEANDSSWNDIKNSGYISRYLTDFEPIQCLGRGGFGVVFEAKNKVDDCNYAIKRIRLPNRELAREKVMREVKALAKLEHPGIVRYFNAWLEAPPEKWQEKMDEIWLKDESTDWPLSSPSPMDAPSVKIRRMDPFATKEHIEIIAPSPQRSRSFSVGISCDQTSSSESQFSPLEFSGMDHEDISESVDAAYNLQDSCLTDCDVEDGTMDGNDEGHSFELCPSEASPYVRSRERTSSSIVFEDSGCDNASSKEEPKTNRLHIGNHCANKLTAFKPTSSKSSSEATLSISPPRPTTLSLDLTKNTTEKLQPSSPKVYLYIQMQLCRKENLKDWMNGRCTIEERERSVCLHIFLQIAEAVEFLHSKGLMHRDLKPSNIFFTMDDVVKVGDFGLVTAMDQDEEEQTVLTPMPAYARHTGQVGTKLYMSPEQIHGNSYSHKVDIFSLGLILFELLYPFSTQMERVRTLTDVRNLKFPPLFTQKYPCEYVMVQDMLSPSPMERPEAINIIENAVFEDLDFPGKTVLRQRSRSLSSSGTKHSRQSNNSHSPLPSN

panel of 391 kinases [16] = molecular target: panel of 391 kinases (Homo sapiens, UniProt Q9P2K8); details: kinase EIF2AK4, compound at 1 µM, single dose in duplicates, 1 µM ATP
panel of 391 kinases [17] = molecular target: panel of 391 kinases (Homo sapiens, UniProt Q9UPZ9); details: LCK2/ICK, MK-28 1 µM, ATP 1 µM
[18] = read-out: % Enzyme Activity (relative to DMSO controls)

CN(/N=C\c1ccc(O)c(O)c1)c1nc(-c2ccccc2)cc(-c2ccccc2)n1 [MK-28]
% Enzyme Activity (relative to DMSO controls) (panel of 391 kinases [1]): 94.82% | remaining activity at 1 µM (panel of 391 kinases [1]; [18]): 96.8% | % Enzyme Activity (relative to DMSO controls) (panel of 391 kinases [2]): 106.86% | remaining activity at 1 µM (panel of 391 kinases [2]; [18]): 108% | % Enzyme Activity (relative to DMSO controls) (panel of 391 kinases [3]): 96.61% | remaining activity at 1 µM (panel of 391 kinases [3]; [18]): 97.7% | % Enzyme Activity (relative to DMSO controls) (panel of 391 kinases [4]): 108.65% | remaining activity at 1 µM (panel of 391 kinases [4]; [18]): 109% | % Enzyme Activity (relative to DMSO controls) (panel of 391 kinases [5]): 84.75% | remaining activity at 1 µM (panel of 391 kinases [5]; [18]): 88.3% | % Enzyme Activity (relative to DMSO controls) (panel of 391 kinases [6]): 100.81% | remaining activity at 1 µM (panel of 391 kinases [6]; [18]): 105% | % Enzyme Activity (relative to DMSO controls) (panel of 391 kinases [7]): 77.40% | remaining activity at 1 µM (panel of 391 kinases [7]; [18]): 77.7% | % Enzyme Activity (relative to DMSO controls) (panel of 391 kinases [8]): 93.45% | remaining activity at 1 µM (panel of 391 kinases [8]; [18]): 96% | % Enzyme Activity (relative to DMSO controls) (panel of 391 kinases [9]): 107.60% | remaining activity at 1 µM (panel of 391 kinases [9]; [18]): 109% | % Enzyme Activity (relative to DMSO controls) (panel of 391 kinases [10]): 97.75% | remaining activity at 1 µM (panel of 391 kinases [10]; [18]): 98.7% | % Enzyme Activity (relative to DMSO controls) (panel of 391 kinases [11]): 101.04% | remaining activity at 1 µM (panel of 391 kinases [11]; [18]): 102% | % Enzyme Activity (relative to DMSO controls) (panel of 391 kinases [12]): 96.34% | remaining activity at 1 µM (panel of 391 kinases [12]; [18]): 100% | % Enzyme Activity (relative to DMSO controls) (panel of 391 kinases [13]): 97.30% | remaining activity at 1 µM (panel of 391 kinases [13]; [18]): 97.6% | % Enzyme Activity (relative to DMSO controls) (panel of 391 kinases [14]): 102.96% | remaining activity at 1 µM (panel of 391 kinases [14]; [18]): 104% | remaining activity at 1 µM (panel of 391 kinases [15]; 1 μM, duplicate, 391-kinase panel, read-out: PERK (EIF2AK3) activity, % of the control): 181% | % Enzyme Activity (relative to DMSO controls) (panel of 391 kinases [15]; kinase EIF2AK3, compound at 1 µM, single dose in duplicates, 1 µM ATP): 175.07% | remaining activity at 1 µM (panel of 391 kinases [15]; kinase EIF2AK3, compound at 1 µM, single dose in duplicates, 1 µM ATP, read-out: % Enzyme Activity (relative to DMSO controls)): 188% | % Enzyme Activity (relative to DMSO controls) (panel of 391 kinases [16]): 87.73% | remaining activity at 1 µM (panel of 391 kinases [16]; [18]): 88.1% | % Enzyme Activity (relative to DMSO controls) (panel of 391 kinases [17]): 99.01% | remaining activity at 1 µM (panel of 391 kinases [17]; [18]): 99.2%
